Measurements taken from the NIST ThermoML archive (doi:10.1016/j.jct.2017.06.002).

Key:
[1] = 100 kPa, Liquid; for viscosity: Concentric cylinders viscometry
[2] = xn = mol fraction of the nth substance listed; conditions: 100 kPa, Liquid, x1 = 1; for viscosity: Concentric cylinders viscometry; for mass density: Vibrating tube method

COCOCOCOCOC [2,4,6,8,10-pentaoxaundecane]
[1]
Conditions | viscosity [mPa·s]
288.15 K | 2.207
293.15 K | 2.015
298.15 K | 1.848
303.15 K | 1.703
308.15 K | 1.576
313.15 K | 1.464

mass density [kg/m3], [1]
Conditions | 288.15 K | 293.15 K | 298.15 K | 303.15 K | 308.15 K | 313.15 K
Buoyancy - hydrostatic balance | – | – | 1067.8 | – | – | –
Vibrating tube method | 1078.8 | 1073.3 | 1068.2 | 1063.4 | 1059.1 | 1055.2

COCOCOCOC [2,4,6,8-tetraoxanonane]
[1]
Conditions | viscosity [mPa·s]
288.15 K | 1.259
293.15 K | 1.166
298.15 K | 1.084
303.15 K | 1.028
308.15 K | 0.9921
313.15 K | 0.9521

mass density [kg/m3], [1]
Conditions | 288.15 K | 293.15 K | 298.15 K | 303.15 K | 308.15 K | 313.15 K
Buoyancy - hydrostatic balance | – | – | 1023.1 | – | – | –
Vibrating tube method | 1037.5 | 1030.2 | 1023.4 | 1016.6 | 1011 | 1005

COCOCOCOC [2,4,6,8-tetraoxanonane] + COCOCOCOCOC
[2]
Conditions | mass density [kg/m3] | viscosity [mPa·s]
288.15 K | 1037.5 | 1.259
293.15 K | 1030.2 | 1.166
298.15 K | 1023.4 | 1.084
303.15 K | 1016.6 | 1.028
308.15 K | 1011 | 0.9921
313.15 K | 1005 | 0.9521

COCOCOC [2,4,6-trioxaheptane]
[1]
Conditions | viscosity [mPa·s]
288.15 K | 0.9255
293.15 K | 0.9152
298.15 K | 0.9028
303.15 K | 0.8885
308.15 K | 0.8726
313.15 K | 0.8554

mass density [kg/m3], [1]
Conditions | 288.15 K | 293.15 K | 298.15 K | 303.15 K | 308.15 K | 313.15 K
Buoyancy - hydrostatic balance | – | – | 989.2 | – | – | –
Vibrating tube method | 999.4 | 995.3 | 989.9 | 984.3 | 978.8 | 974.2

COCOCOC [2,4,6-trioxaheptane] + COCOCOCOC
[2]
Conditions | mass density [kg/m3] | viscosity [mPa·s]
288.15 K | 999.4 | 0.9255
293.15 K | 995.3 | 0.9152
298.15 K | 989.9 | 0.9028
303.15 K | 984.3 | 0.8885
308.15 K | 978.8 | 0.8726
313.15 K | 974.2 | 0.8554

COCOCOC [2,4,6-trioxaheptane] + COCOCOCOCOC
[2]
Conditions | mass density [kg/m3] | viscosity [mPa·s]
288.15 K | 999.4 | 0.9255
293.15 K | 995.3 | 0.9152
298.15 K | 989.9 | 0.9028
303.15 K | 984.3 | 0.8885
308.15 K | 978.8 | 0.8726
313.15 K | 974.2 | 0.8554
